For 10 compounds, IC50, AC50 and GI50 results are on record in US20250332173A1, “COMPOUNDS AND METHODS FOR MODULATING NUCLEIC ACID SPLICING” (REMIX THERAPEUTICS INC., priority 2021, published 2025).

Test [1] concerns HTT mRNA. Put plainly: RT-qPCR splicing assay, HTT canonical junction (CJ) and alternative junction (AJ) mRNA. It is filed as cell-based, human. The following applies: Homo sapiens; for AC50: increase in HTT alternative junction (AJ) mRNA, read-out: HTT AJ AC50. How it is done: (§1) The expression of a target mRNA was measured by detecting the formation of an exon-exon junction in the canonical transcript (CJ). A compound mediated exon-inclusion event was detected by observing an increase in formation of a new junction with an alternative exon (AJ). Real-time qPCR assays were used to detect these splicing switches and interrogate the potency of various compounds towards different target genes. A high-throughput real time quantitative PCR (RT-qPCR) assay was developed to measure these two isoforms of the mRNA (CJ and AJ) for exemplary genes, such as HTT, SMN2, and MYB, together with a control housekeeping gene, GAPDH or GUSB or PPIA, used for normalization. Briefly, the A673 or K562 cell line was treated with various compounds described herein (e.g., compounds of Formula (I)). After treatment, the levels of the HTT, MYB, or SMN2 mRNA targets were determined from each sample of cell lysate by cDNA synthesis followed by qPCR.
(§2) • Cells-to-CT 1-step kit: ThermoFisher A25602, Cells-to-CT lysis reagent: ThermoFisher 4391851C, TaqMan™ Fast Virus 1-Step Master Mix: ThermoFisher 4444436 • GAPDH: VIC-PL, ThermoFisher 4326317E (Assay: Hs99999905_m1)—used for K562/suspension cell lines • GUSB: VIC-PL, ThermoFisher 4326320E (Assay: Hs99999908_m1)—used for K562/suspension cell lines • PPIA: VIC-PL, ThermoFisher 4326316E (Assay: Hs99999904_m1)—used for A673/adherent cell lines
(§3) The A673 cell line was cultured in DMEM with 10% FBS. Cells were diluted with full growth media and plated in a 96-well plate (15,000 cells in 100 ul media per well). The plate was incubated at 37° C. with 5% CO2 for 24 hours to allow cells to adhere. An 11-point 3-fold serial dilution of the compounds was made in DMSO then diluted in media in an intermediate plate. Compounds were transferred from the intermediate plate to the cell plate with the top dose at a final concentration of 10 uM in the well. Final DMSO concentration was kept at or below 0.25%. The cell plate was returned to the incubator at 37° C. with 5% CO2 for an additional 24 hours.
(§4) The K562 cell line was cultured in IMDM with 10% FBS. For K562, cells were diluted with full growth media and plated in either a 96-well plate (50,000 cells in 50 uL media per well) or a 384-well plate (8,000-40,000 cells in 45 uL media per well). An 11-point 3-fold serial dilution of the compounds were made in DMSO then diluted in media in an intermediate plate. Compound was transferred from the intermediate plate to the cell plate with the top dose at a final concentration of 10 uM in the well. Final DMSO concentration was kept at or below 0.25%. Final volume was 100 uL for 96-well plate and 50 uL for 384-well plate. The cell plate was then placed in an incubator at 37° C. with 5% CO2 for 24 hours.
(§5) The cells were then gently washed with 50 uL-100 uL cold PBS before proceeding to addition of lysis buffer. 30 uL-50 uL of room temperature lysis buffer with DNAse I (and optionally RNAsin) was added to each well. Cells were shaken/mixed thoroughly at room temperature for 5-10 minutes for lysis to take place and then 3 uL-5 uL of room temperature stop solution was added and wells were shaken/mixed again. After 2-5 minutes, the cell lysate plate was transferred to ice for RT-qPCR reaction setup. The lysates could also be frozen at −80° C. for later use.
(§6) In some cases, a direct lysis buffer was used. An appropriate volume of 3× lysis buffer (10 mM Tris, 150 mM NaCl, 1.5%-2.5% Igepal and 0.1-1 U/uL RNAsin, pH 7.4) was directly added to either K562 or A673 cells in media and mixed by pipetting 3 times. The plates were then incubated at room temperature with shaking/rocking for 20-50 minutes to allow for lysis to take place. After this time, the cell lysate plate was transferred to ice to set up for the RT-qPCR reactions. The lysates could also be frozen at −80° C. for later use.
(Real-time PCR tracks product formation cycle by cycle.)

Test [2] relates to Target C. Put plainly: RT-qPCR splicing assay panel, Target C canonical junction (CJ) mRNA. The class given is cell-based, human. The following applies: Homo sapiens. How it is done: as §1, §3, §4, §5, §6
To set up 10 uL RT-qPCR reactions, cell lysates were transferred to 384-well qPCR plates containing the master mix according to the table below. The plates were sealed, gently vortexed, and spun down before the run. The volumes were adjusted accordingly in some instances where the reaction was carried in 20 uL. The table below summarizes the components of the RT-qPCR reactions:
The RT-qPCR reaction was performed using a QuantStudio (ThermoFisher) under the following fast cycling conditions.

Test [3] has as its system MYB mRNA. Put plainly: RT-qPCR splicing assay, MYB canonical junction (CJ) and alternative junction (AJ) mRNA. The class given is cell-based, human. The following applies: Homo sapiens; for AC50: increase in MYB alternative junction (AJ) mRNA, read-out: MYB AJ AC50. How it is done:
as §1, §2, §3, §4, §5, §6

Test [4] has as its system K562 (human chronic myelogenous leukemia) cells. Put plainly: Cell Titer Glo 2.0 cell viability assay. The class given is cell-based. The following applies: Homo sapiens, K562, 72 h, K562 cells, 72 hours, Cell Titer Glo 2.0; read-out: K562 GI50. (ATP-based viability assays read luminescence as a measure of living cells.)
[5] abbreviates: decrease in HTT canonical junction (CJ) mRNA, RT-qPCR, read-out: HTT CJ IC50.
[6] abbreviates: Table 5 panel, canonical junction qPCR, compound concentration having 50% response in CJ decrease, read-out: Target C IC50 (decrease in CJ mRNA levels).
[7] abbreviates: Table 5 panel, canonical junction qPCR, compound concentration having 50% response in CJ decrease, read-out: HTT IC50 (decrease in CJ mRNA levels).
Setting [8] is: canonical junction qPCR panel, Table 5, read-out: Target C (decrease in CJ mRNA levels, IC50).
Setting [9] is: canonical junction qPCR panel, Table 5, read-out: MYB (decrease in CJ mRNA levels, IC50).
The mark [10] stands for this setting: decrease in MYB canonical junction (CJ) mRNA, RT-qPCR, read-out: MYB CJ IC50.
[11] abbreviates: canonical junction qPCR panel, Table 5, read-out: HTT (decrease in CJ mRNA levels, IC50).

Molecules are shown by their SMILES. pIC50: −log10 of the molar value. Where two headings read alike, the source gives them in different places.

Take `Cc1cn2cc(-c3ccc4c(=O)n(C5CCNCC5)ncc4c3)nc2c(C)n1` [Compound 258]: in test [1] (setting [5]), the pIC50 (in general, the negative decadic logarithm of the IC50, by convention in mol/L) is below 5.00. Moreover, in test [1] (RT-qPCR), the AC50 (commonly the concentration giving half of the maximal activity seen) is 1000 to 10000 nM.
Take `Cc1cn2nc(-c3ccc4c(=O)n([C@H]5CCN[C@H](C)C5)ncc4c3)cc(C)c2n1` [Compound 273]: the pIC50 in test [2] (setting [6]) was 6.00 to 7.00; in test [1] (setting [5]), 6.00 to 7.00; in test [1] (setting [7]), above 7.00. Besides, the AC50 in test [1] (RT-qPCR) is below 100 nM.
For `Cc1cn2nc(-c3ccc4c(=O)n(C5CCOCC5)ncc4c3)cc(C)c2n1` [Compound 275], the pIC50 in test [2] (setting [6]) and in test [1] (setting [7]) was below 5.00 each time.
On to `CC[C@@H]1C[C@@H](n2ncc3cc(-c4cc(C)c5nc(C)cn5n4)ccc3c2=O)CCN1` [Compound 305], for which the pIC50 was 6.00 to 7.00 in test [2] (setting [6]), 5.00 to 6.00 in test [1] (setting [5]) and 6.00 to 7.00 in test [1] (setting [7]). Moreover, the AC50 in test [1] (RT-qPCR) is 100 to 1000 nM.
For the compound `Cc1cn2nc(-c3ccc4c(=O)n([C@@H]5CCNC6(CC6)C5)ccc4n3)cc(C)c2n1` [Compound 1505, 6-[(7R)-4-azaspiro[2.5]octan-7-yl]-2-(2,8-dimethylimidazo[1,2-b]pyridazin-6-yl)-1,6-naphthyridin-5-one], the pIC50 in test [2] (setting [8]), in test [3] (setting [9]), in test [3] (setting [10]), in test [1] (setting [5]) and in test [1] (setting [11]) was 6.00 to 7.00 each time. In addition, the AC50 in test [3] (RT-qPCR) and in test [1] (RT-qPCR) was 100 to 1000 nM throughout. The GI50 (commonly the concentration at which growth is held to half of that of the control) in test [4] lay in the range of 1000 to 10000 nM.
Consider `Cc1cn2nc(-c3ccc4c(=O)n([C@H]5CCNC6(CC6)C5)ccc4n3)cc(C)c2n1` [Compound 1506, 6-[(7S)-4-azaspiro[2.5]octan-7-yl]-2-(2,8-dimethylimidazo[1,2-b]pyridazin-6-yl)-1,6-naphthyridin-5-one], for which the pIC50 in test [2] (setting [8]) is 6.00 to 7.00; in test [3] (setting [9]) it was 6.00 to 7.00; in test [3] (setting [10]), above 7.00; in test [1] (setting [5]), above 7.00; in test [1] (setting [11]), above 7.00. Moreover, the AC50 in test [3] (RT-qPCR) was 100 to 1000 nM; in test [1] (RT-qPCR), below 100 nM. Besides, the GI50 in test [4] fell in the range of 100 to 1000 nM.
Turning to `C[C@H]1C[C@@H](n2ccc3nc(-c4cc(F)c5nn(C)cc5c4)ccc3c2=O)CCN1` [Compound 1507], the pIC50 was 5.00 to 6.00 in test [2] (setting [8]); 6.00 to 7.00 in test [3] (setting [9]); 6.00 to 7.00 in test [3] (setting [10]); 6.00 to 7.00 in test [1] (setting [5]); 6.00 to 7.00 in test [1] (setting [11]). Besides, the AC50 in test [3] (RT-qPCR) and in test [1] (RT-qPCR) was 100 to 1000 nM throughout. Moreover, the GI50 in test [4] fell in the range of 100 to 1000 nM.
Take `Cc1c(O)c(-c2ccc3c(=O)n([C@H]4CCNC5(CC5)C4)ccc3n2)cc2cn(C)nc12` [Compound 1508, 6-[(7S)-4-azaspiro[2.5]octan-7-yl]-2-(6-hydroxy-2,7-dimethyl-indazol-5-yl)-1,6-naphthyridin-5-one]: the pIC50 in test [2] (setting [8]), in test [3] (setting [9]), in test [3] (setting [10]), in test [1] (setting [5]) and in test [1] (setting [11]) was above 7.00 in each case. Also, the AC50 in test [3] (RT-qPCR) and in test [1] (RT-qPCR) was below 100 nM each time. Besides, the GI50 in test [4] is below 100 nM.
Consider `Cc1c(O)c(-c2ccc3c(=O)n([C@@H]4CCNC5(CC5)C4)ccc3n2)cc2cn(C)nc12` [Compound 1509, 6-[(7R)-4-azaspiro[2.5]octan-7-yl]-2-(6-hydroxy-2,7-dimethyl-indazol-5-yl)-1,6-naphthyridin-5-one], for which the pIC50 in test [2] (setting [8]) was 6.00 to 7.00; in test [3] (setting [9]) it was above 7.00; in test [3] (setting [10]), 6.00 to 7.00; in test [1] (setting [5]), 6.00 to 7.00; in test [1] (setting [11]), 6.00 to 7.00. The results for the AC50 in test [3] (RT-qPCR) and in test [1] (RT-qPCR) were below 100 nM and 100 to 1000 nM, respectively. The GI50 in test [4] was 100 to 1000 nM.
Consider `Cc1cn2cc(-c3ccc4c(=O)n([C@@H]5CCNC6(CC6)C5)ccc4n3)cc(F)c2n1` [Compound 1510], for which the pIC50 was 5.00 to 6.00 in test [2] (setting [8]); 6.00 to 7.00 in test [3] (setting [9]); 5.00 to 6.00 in test [3] (setting [10]); 5.00 to 6.00 in test [1] (setting [5]); 6.00 to 7.00 in test [1] (setting [11]). The AC50 in test [3] (RT-qPCR) and in test [1] (RT-qPCR) was 100 to 1000 nM in each case. The GI50 in test [4] was in the range of 100 to 1000 nM.
